This note sets out measurements from US20250025473A1 (priority 2021, published 2025).

The test system of series [1] is MDCK-MDR1 cells. The following applies: 5 μM.
The target in series [2] is T1, panel of 393 kinases (Homo sapiens, UniProt Q9BQI3).
T1 construct: purchased Reaction Biology Corporation
As to the kind of experiment: biochemical.

The target of series [3] is T2, panel of 393 kinases (Homo sapiens, UniProt Q15118).
T2 construct: purchased Reaction Biology Corporation
As to the kind of experiment: biochemical. Conditions: kinase PDK1/PDHK1; control compound.

In series [4] the target is T3, panel of 393 kinases (Homo sapiens, UniProt Q16654).
T3 construct: purchased Reaction Biology Corporation
T3 sequence (Q16654 whole entry): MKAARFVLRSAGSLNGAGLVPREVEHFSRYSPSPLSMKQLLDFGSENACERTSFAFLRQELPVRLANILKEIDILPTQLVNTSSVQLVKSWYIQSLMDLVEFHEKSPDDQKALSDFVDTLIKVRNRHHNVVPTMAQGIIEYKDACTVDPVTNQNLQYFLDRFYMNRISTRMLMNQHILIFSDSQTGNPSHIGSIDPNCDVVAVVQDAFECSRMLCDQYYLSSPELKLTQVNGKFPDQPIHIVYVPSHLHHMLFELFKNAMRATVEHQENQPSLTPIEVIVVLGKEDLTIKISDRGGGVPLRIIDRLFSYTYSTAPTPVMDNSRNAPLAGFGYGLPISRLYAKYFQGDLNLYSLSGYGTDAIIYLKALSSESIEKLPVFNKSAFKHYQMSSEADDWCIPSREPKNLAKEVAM
As to the kind of experiment: biochemical. The following applies: kinase PDK4/PDHK4; control compound.

The target in series [5] is T4, panel of 393 kinases (Homo sapiens, UniProt Q15119).
T4 construct: purchased Reaction Biology Corporation
As to the kind of experiment: biochemical. Conditions: kinase PDK2/PDHK2; control compound.

Series [6] concerns the target T5, panel of 393 kinases (Homo sapiens, UniProt Q15120).
T5 construct: purchased Reaction Biology Corporation
As to the kind of experiment: biochemical. The following applies: kinase PDK3/PDHK3; control compound.

Series [7] has as its target T6, panel of 393 kinases (Homo sapiens, UniProt Q96QT4).
T6 construct: purchased Reaction Biology Corporation
As to the kind of experiment: biochemical. Conditions: kinase TRPM7/CHAK1; control compound.

A short description of series [8]: Parallel artificial membrane permeability assay (PAMPA). The format is in vitro ADME.
Series [9] relates to HaCat cells. As to the kind of experiment: Cytotoxicity/viability, confluent HaCat cells. The format is cell-based, human. The following applies: 10 μM. The procedure: Results are presented as mean±SEM odu as a percentage of the DMSO control (n=2 independent experiments each conducted in duplicate for C and 1 experiment conducted in duplicate for D). Results in B-D were compared by ANOVA, *p<0.05, **p<0.01, ***p<0.001, ****p<0.0001).
Cell proliferation and viability were determined using the Cell Titer 96® Aqueous One Solution and optical density was determined using a SpectraMax® M5e Molecular Devices multidetection microplate reader. […] The cells were then fixed and stained for activated caspases (red) and SYTOX Green (for integrity of plasma membrane) by Image-iT™ LIVE red Poly Caspase Detection kit. Nuclei were stained with Hoechst. Images were acquired by laser confocal microscope ZeissLive/DuoScan equipped with oil immersion objectives 63×1.1 and captured in an optical slice of 0.37 μm with appropriate filters. Alternatively, immunoblots were prepared and probed with antibodies to cleaved PARP-1 or cleaved caspase 8.

The test system of series [10] is PLSCR1. The format is cell-based, monkey. The following applies: Vero, 30 minutes; drugs 10 μM each.
The test system of series [11] is PLSCR1. As to the kind of experiment: PLSCR1 phosphorylation after HSV-2 (immunoprecipitation/Western). The format is cell-based, human. Conditions: 10 μM, HaCat, 30 minutes.
Series [12] relates to phosphatidylserine (PtdS) and Akt. As to the kind of experiment: Translocation of PtdS and Akt to the outer leaflet after HSV-2 (confocal, non-permeabilized). The format is cell-based, human. Conditions: HaCat, HSV-2(G).
The test system of series [13] is VSV-S (VSV pseudotyped with SARS-CoV-2 spike protein). The format is cell-based.
Series [14] deals with HSV-1 K26GFP. As to the kind of experiment: HSV capsid entry, GFP+ cells by confocal imaging. The following applies: HaCat, 4 h post-temperature shift; CIMSS 10 μM, anti-Akt 2 μg/ml, cycloheximide 10 μg/ml.
In series [15] the target is T7, panel of 393 kinases (Homo sapiens, UniProt P54646).
T7 construct: purchased Reaction Biology Corporation
T7 sequence (P54646 whole entry): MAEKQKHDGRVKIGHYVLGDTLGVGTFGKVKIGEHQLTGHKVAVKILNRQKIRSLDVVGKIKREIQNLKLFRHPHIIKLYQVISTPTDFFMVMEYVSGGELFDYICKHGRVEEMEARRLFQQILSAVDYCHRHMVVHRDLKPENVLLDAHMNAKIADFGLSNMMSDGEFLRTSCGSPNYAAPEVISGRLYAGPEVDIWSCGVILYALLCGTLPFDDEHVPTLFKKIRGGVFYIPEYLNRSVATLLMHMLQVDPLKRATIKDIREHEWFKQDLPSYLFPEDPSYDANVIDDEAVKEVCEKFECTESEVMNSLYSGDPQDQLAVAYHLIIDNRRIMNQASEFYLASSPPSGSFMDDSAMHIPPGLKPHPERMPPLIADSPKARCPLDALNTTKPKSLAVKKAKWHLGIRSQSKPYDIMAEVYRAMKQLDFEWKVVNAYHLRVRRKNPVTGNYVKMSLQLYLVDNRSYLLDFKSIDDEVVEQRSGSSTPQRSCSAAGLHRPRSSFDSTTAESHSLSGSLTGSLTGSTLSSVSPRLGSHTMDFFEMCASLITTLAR
As to the kind of experiment: biochemical. The following applies: control compound.

The target in series [16] is T8, panel of 393 kinases (Homo sapiens, UniProt Q13131).
T8 construct: purchased Reaction Biology Corporation
T8 sequence (Q13131 whole entry): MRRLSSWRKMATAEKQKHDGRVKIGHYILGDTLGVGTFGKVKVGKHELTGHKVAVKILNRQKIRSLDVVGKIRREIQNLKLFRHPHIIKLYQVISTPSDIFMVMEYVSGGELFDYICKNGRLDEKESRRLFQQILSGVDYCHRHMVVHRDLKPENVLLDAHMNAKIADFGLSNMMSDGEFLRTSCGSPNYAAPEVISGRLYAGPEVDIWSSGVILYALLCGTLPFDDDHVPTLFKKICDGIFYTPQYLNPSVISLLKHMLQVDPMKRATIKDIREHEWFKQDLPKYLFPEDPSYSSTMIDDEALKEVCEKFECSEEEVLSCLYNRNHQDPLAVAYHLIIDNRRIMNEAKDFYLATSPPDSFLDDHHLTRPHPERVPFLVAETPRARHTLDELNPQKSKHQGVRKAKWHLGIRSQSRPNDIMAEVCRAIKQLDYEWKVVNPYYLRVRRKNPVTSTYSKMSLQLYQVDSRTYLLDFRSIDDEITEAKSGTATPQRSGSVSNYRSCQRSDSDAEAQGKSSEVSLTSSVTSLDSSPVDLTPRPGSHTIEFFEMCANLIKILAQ
As to the kind of experiment: biochemical. Conditions: control compound.

Where a name gives a salt, the structure may show the parent alone.

T2 sequence (Q15118 29-436): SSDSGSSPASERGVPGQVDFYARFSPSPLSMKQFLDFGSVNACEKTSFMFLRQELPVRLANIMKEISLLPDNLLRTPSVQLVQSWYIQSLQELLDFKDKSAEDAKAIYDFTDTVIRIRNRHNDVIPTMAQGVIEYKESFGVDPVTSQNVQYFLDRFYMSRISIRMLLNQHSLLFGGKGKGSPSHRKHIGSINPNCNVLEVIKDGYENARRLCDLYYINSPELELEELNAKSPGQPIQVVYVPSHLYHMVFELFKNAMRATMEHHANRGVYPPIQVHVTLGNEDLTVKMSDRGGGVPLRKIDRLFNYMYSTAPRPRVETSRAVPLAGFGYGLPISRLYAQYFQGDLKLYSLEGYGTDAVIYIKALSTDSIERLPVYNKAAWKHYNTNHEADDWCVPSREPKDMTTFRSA
T1 sequence (Q9BQI3 whole entry): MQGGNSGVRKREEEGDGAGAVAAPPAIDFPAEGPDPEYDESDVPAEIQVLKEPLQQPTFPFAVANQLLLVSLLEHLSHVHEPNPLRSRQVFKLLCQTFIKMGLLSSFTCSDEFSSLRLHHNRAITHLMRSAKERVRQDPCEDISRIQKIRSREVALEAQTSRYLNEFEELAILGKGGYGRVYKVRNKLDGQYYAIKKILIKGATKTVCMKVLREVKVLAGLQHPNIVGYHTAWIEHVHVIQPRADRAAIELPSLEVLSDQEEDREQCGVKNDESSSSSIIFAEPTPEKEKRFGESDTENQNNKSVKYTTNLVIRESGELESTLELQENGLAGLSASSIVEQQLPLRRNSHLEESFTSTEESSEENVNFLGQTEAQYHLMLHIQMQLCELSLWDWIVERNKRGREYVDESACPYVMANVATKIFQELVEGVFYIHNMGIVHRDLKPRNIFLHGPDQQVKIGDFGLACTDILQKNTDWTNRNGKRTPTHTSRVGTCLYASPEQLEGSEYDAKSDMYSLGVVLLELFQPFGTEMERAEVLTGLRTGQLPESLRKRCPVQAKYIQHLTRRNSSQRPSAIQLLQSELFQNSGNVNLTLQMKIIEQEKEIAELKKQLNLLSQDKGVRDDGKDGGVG
T5 sequence (Q15120 whole entry): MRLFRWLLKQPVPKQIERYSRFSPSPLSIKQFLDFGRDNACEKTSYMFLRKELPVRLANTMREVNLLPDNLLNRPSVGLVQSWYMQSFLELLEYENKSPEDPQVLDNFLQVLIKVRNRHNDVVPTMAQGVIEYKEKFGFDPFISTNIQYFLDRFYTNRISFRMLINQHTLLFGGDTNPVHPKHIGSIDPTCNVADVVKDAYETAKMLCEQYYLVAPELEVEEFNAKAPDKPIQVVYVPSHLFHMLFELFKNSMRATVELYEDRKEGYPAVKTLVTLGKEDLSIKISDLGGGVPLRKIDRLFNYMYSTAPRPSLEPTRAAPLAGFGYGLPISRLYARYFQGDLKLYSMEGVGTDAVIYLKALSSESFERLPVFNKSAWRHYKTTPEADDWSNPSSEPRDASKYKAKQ
T6 sequence (Q96QT4 whole entry): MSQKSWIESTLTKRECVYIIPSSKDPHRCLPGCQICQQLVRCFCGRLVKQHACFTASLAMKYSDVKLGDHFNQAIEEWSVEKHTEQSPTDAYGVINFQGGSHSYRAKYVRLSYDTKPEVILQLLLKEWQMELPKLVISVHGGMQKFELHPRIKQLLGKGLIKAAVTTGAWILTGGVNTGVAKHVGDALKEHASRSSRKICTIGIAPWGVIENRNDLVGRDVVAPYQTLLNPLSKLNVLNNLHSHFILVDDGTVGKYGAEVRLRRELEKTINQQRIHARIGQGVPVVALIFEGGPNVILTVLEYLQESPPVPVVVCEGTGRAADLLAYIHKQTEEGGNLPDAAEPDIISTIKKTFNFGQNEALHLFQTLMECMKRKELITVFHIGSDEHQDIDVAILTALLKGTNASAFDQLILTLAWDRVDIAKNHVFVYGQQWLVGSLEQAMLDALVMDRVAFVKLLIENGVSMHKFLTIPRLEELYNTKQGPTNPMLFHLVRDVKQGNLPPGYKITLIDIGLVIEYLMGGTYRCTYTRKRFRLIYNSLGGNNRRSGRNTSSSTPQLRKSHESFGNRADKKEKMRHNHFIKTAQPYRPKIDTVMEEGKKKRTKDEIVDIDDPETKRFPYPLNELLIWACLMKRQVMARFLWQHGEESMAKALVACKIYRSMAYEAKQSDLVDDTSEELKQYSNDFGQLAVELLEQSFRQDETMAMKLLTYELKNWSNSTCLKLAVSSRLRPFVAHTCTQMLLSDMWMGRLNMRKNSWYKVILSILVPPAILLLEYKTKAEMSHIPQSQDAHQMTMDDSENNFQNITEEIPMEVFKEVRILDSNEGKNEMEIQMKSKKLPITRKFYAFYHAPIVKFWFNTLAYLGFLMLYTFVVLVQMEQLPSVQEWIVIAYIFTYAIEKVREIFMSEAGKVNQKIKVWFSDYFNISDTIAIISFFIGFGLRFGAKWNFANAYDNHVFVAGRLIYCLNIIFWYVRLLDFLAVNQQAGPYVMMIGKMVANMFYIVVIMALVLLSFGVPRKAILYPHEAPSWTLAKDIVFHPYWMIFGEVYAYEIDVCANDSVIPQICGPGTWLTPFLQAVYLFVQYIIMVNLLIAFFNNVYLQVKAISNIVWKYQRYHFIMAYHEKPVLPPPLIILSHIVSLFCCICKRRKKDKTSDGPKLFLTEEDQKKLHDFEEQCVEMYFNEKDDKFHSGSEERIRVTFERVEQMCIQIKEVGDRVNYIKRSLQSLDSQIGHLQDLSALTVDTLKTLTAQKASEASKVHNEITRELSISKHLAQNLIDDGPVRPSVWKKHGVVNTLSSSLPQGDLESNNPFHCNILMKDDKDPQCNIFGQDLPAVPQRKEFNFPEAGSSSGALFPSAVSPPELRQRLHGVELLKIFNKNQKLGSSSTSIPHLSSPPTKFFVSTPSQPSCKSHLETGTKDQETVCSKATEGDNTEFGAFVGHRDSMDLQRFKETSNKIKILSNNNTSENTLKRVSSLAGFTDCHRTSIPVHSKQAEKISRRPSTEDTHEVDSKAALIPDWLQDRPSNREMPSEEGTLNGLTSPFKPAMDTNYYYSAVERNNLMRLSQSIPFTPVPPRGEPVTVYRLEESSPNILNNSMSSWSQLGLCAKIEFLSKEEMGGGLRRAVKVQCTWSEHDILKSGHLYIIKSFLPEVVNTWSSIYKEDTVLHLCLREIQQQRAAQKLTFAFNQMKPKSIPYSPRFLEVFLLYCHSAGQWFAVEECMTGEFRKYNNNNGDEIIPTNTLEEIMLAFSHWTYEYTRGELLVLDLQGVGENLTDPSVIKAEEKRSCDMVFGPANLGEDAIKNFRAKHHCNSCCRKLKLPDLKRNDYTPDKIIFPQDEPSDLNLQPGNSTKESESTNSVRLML

`C[C@H]1O[C@@H](O[C@H]2[C@@H](O)C[C@H](O[C@H]3[C@@H](O)C[C@H](O[C@H]4CC[C@@]5(C)[C@H](CC[C@@H]6[C@@H]5C[C@@H](O)[C@]5(C)[C@@H](C7=CC(=O)OC7)CC[C@]65O)C4)O[C@@H]3C)O[C@@H]2C)C[C@H](O)[C@@H]1O` [Digoxin]: in series [1], the “Recover %, MDCK Transport” value was found to be 96%.
A word on the IC50: it is the point on the concentration scale where inhibition reaches its midpoint. A lower IC50 goes with greater potency in that assay. `Cn1cc(-c2ccc3c(c2)CCN3C(=O)Cc2cccc(C(F)(F)F)c2)c2c(N)ncnc21` [GSK-2606414] registered an IC50 in series [2] of 96.2 nM.
For `O=C1Nc2ccc(I)cc2/C1=C/c1cc(Br)c(O)c(Br)c1` [GW5074], the IC50 in series [3] stood at 8630 nM; in [4] it was 1890 nM; in [5], 5050 nM; in [6], 2570 nM.
In turn, `CCCCCCCCCCCCCCCCn1cc[n+](Cc2ccccc2)c1C` [NH125] had a half-maximal inhibitory concentration (IC50) in [7] of 23400 nM. That is a double-digit micromolar value.
In the case of `CC(C)NCC(O)COc1cccc2ccccc12` (stereo not drawn) [Propranolol], the “Recover %, PAMPA” value in [8] (100 μM) was 85%. In addition, in series [8] (100 μM in PBS pH 7.4, 5 hours, room temperature), the “Papp, PAMPA” value worked out at 8.991 ×10⁻⁶ cm/s. Moreover, in [1], the “Recover %, MDCK Transport” value turned out to be 93%.
In the case of `CN[C@@H]1C[C@H]2O[C@@](C)([C@@H]1OC)n1c3ccccc3c3c4c(c5c6ccccc6n2c5c31)C(=O)NC4` [Staurosporine, (9S,10R,11R,13R)-2,3,10,11,12,13-hexahydro-10-methoxy-9-methyl-11-(methylamino)-9,13-epoxy-1H,9H-diindolo[1,2,3-gh:3′,2′,1′-lm]pyrrolo[3,4-j][1,7]benzodiazonin-1-one, reference compound], the cytotoxicity entry is “completely cytotoxic” in series [9] (confluent HaCat, 72 and 120 hours of exposure); “cytotoxic within 24 h” in [9] (fully confluent HaCat cells, up to 120 h). In [10], the “phosphorylation of PLSCR1 after VSV-S” value was “inhibited”. Further, in [11], the “phosphorylation of PLSCR1 after HSV-2” value was “inhibited”. For the same compound, the “translocation of PtdS and Akt to the outer leaflet of the plasma membrane” value in series [12] (10 μM) is given as “inhibited”.
In the case of `CN(C)C(=O)COC(=O)Cc1ccc(OC(=O)c2ccc(NC(=N)N)cc2)cc1` [camostat mesylate, reference compound], in [13], the “VSV-S infection (plaques or viral yields)” value is listed as “inhibited”.
On to `C[C@@H]1C[C@@H]([C@H](O)CC2CC(=O)NC(=O)C2)C(=O)[C@@H](C)C1` [cycloheximide, reference compound], for which the “percentage of GFP+ cells” value in [14] was “significantly reduced”.
In the case of Apyrase, the “detection of PtdS or PLSCR1 at the outer leaflet” value in series [12] (10 U/ml) is “no discernible effect”.
In the case of Ro-31-8220, the IC50 is 296 nM in series [15] (kinase AMPK (A2/B1/G3)); 212 nM in series [15] (kinase AMPK(A2/B1/G1)); 97.8 nM in [15] (kinase AMPK(A2/B2/G1)); 100 nM in series [15] (kinase AMPK(A2/B2/G2)); 186 nM in series [15] (kinase AMPK(A2/B2/G3)); 66.8 nM in series [16] (kinase AMPK(A1/B1/G1)). The results for the IC50 in series [16] (kinase AMPK(A1/B1/G2)), in series [16] (kinase AMPK(A1/B1/G3)) and in series [16] (kinase AMPK(A1/B2/G1)) were 76.8 nM, 179 nM and 116 nM, respectively.
